Measurements reported in patent US20170313669A1, “LACTONE COMPOUNDS AND METHODS OF MAKING AND USING SAME” (THE SCRIPPS RESEARCH INSTITUTE, priority 2015, published 2017).

Columns and labels:
[1] = molecular target: PS lipase activity of mouse peritoneal macrophages (Mus musculus, UniProt Q9Z1Q2); assay: PS lipase activity of peritoneal macrophage membrane proteomes; settings: LPS-stimulated macrophages; 1 μM, 30 min, 37° C.
ABHD2 = molecular target: T1, ABHD2 (Homo sapiens, UniProt P08910); assay: ABPP-SILAC, COLO205 cells treated in situ; format: cell-based; settings: COLO 205, 4 h
T1 construct: All ABPP-SILAC experiments were performed using the human COLO205 colon cancer cell line; endogenous in cells; host or cells: COLO205

[2] = test system: mouse peritoneal macrophages; assay: Lyso-PS content of thioglycollate-elicited peritoneal macrophages; format: cell-based; settings: pre-treatment 1 μM, 4 h; LPS 5 μg/mL, 7 h
Experimental: ABHD16A^+/+, ABHD16A^+/+, and ABHD16A^−/− littermates of 10 weeks age were anaesthetized by isoflurane and killed by decapitation. The tissues (brains were sliced laterally into two hemispheres; entire spinal cord) were harvested, weighed, and immediately submerged in liquid N2. Tissues (one half brain or entire spinal cord) were then Dounce-homogenized in 8 mL of 2:1:1 (vol/vol/vol) CHCl3: MeOH: PBS containing the internal standard mix (1 nmol 17:1 FFA, and 100 pmol each of 17:1 lyso-PS, 17:0-20:4 PS, 17:1 lyso-PC, 17:0-20:4 PC, 17:0-20:4 PE and 50 pmol of 2-AG-d5). Homogenates were transferred to a glass vial and centrifuged at 2800×g for 10 minutes to separate the two phases. The organic phase (bottom) was removed, 200 μL of formic acid was added to acidify the aqueous homogenate (to enhance extraction of phospholipids), and CHCl3 was added to make up 8 mL volume. […]
All the metabolites analyzed in this study were quantified using the multiple reaction monitoring (MRM) methods the targeted LC/MS analysis was done using an Agilent Technologies 6460 Triple Quad LC/M with an Agilent Technologies 1290 Infinity series quaternary pump. All data was collected using the LC/MS Data Acquisition mode of the Mass Hunter Workstation Software version B.05.00 build 5.0.5027.0 SP, and analyzed using the Quantitative Analysis mode of the same software. […]

[3] = test system: additional off-targets (serine hydrolases); assay: ABPP-SILAC, COLO205 cells treated in situ; format: cell-based, human; settings: 1 μM, 4 h
ABHD12−/− macrophages = assay: Lyso-PS and cytokine secretion of ABHD12−/− macrophages; format: cell-based, mouse; settings: pre-treatment 1 μM, 4 h
Experimental: (a, b) Concentrations of secreted cytokines from ABHD12^+/+ and ABHD12^−/− thioglycollate-elicited peritoneal macrophages that were either unstimulated (PBS) (a) or stimulated (b) with LPS (5 μg/mL, 7 h). […] Student's t-test: * p<0.05 for ABHD12^−/− and ABHD12^+/+ groups. (c) Concentrations of secreted lyso-PS from ABHD12^+/+ and ABHD12^−/− macrophages treated with vehicle (PBS) or LPS (5 μg/mL) for 7 h. […] Student's t-test: ** p<0.0005, *** p<0.0001 for KC01-treated versus DMSO-treated groups.
Peritoneal macrophages were elicited and harvested from mice according to the standard protocols available from LIPID MAPS (See http://www.lipidmaps.org/protocols/PP0000001400.pdf and http://www.lipidmaps.org/protocols/PP0000001500.pdf). After removal of the RBC lysis buffer, the macrophages were re-suspended in RPMI 1640 with 10% FCS and IX penicillin-streptomycin. Cell counts measured using a Bio-Rad TC10 automated cell counter, and equal numbers of cells (2×10^6) were plated in 10 cm tissue culture dishes. Macrophages were allowed to adhere to the plates for 2 h at 37° C. and 5% CO2. […] Macrophages were then stimulated with lipopolysaccharide (5 μg/mL) for 7 hours. Sterile PBS was the vehicle in these studies. Four milliliters of the media was used for measuring secreted metabolites, and 0.5 mL was used for cytokine measurements.

COLO205 cells = assay: PS lipase activity of membrane fraction after in situ treatment; settings: 1 μM, 4 h
[4] = molecular target: mouse brain membrane PS lipase activity (Mus musculus, UniProt Q9Z1Q2); format: biochemical; settings: two-month old ABHD12+/+ and ABHD12−/− mice
[5] = molecular target: T2, PS lipase activity of human lymphoblast cell lines (LCLs) (Homo sapiens, UniProt O95870); assay: PS lipase activity of LCL membrane proteomes; format: biochemical; settings: proteomes pre-treated 1 μM, 30 min, 37° C.
T2 construct: PS lipase activity of membrane proteomes from indicated LCLs; endogenous in cells; host or cells: human lymphoblast cell lines (PHARC subject, relatives, controls), membrane proteome
Text: For part (a), Student's t-test: ** p<0.005 for PHARC LCL versus Control 1 or Control 2 LCLs.

Chain of PS lipase activity of mouse peritoneal macrophages (Q9Z1Q2 whole entry): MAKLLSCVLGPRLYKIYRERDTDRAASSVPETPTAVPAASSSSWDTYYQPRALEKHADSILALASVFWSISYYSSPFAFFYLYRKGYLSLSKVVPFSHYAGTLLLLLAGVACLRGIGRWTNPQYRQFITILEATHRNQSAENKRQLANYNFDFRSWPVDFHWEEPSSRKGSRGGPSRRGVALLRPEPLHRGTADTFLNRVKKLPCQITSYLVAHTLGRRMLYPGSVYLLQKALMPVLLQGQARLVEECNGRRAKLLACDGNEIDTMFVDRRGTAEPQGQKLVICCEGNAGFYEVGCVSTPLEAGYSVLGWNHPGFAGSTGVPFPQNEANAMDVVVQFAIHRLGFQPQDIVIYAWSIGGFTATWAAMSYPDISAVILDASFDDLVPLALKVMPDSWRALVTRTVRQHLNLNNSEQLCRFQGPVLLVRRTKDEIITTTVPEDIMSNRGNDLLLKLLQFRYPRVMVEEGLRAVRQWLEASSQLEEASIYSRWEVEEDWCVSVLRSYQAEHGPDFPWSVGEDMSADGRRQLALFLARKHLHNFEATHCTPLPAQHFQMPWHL
Chain of mouse brain membrane PS lipase activity (Q9Z1Q2 whole entry): as above
T2 sequence (O95870 whole entry): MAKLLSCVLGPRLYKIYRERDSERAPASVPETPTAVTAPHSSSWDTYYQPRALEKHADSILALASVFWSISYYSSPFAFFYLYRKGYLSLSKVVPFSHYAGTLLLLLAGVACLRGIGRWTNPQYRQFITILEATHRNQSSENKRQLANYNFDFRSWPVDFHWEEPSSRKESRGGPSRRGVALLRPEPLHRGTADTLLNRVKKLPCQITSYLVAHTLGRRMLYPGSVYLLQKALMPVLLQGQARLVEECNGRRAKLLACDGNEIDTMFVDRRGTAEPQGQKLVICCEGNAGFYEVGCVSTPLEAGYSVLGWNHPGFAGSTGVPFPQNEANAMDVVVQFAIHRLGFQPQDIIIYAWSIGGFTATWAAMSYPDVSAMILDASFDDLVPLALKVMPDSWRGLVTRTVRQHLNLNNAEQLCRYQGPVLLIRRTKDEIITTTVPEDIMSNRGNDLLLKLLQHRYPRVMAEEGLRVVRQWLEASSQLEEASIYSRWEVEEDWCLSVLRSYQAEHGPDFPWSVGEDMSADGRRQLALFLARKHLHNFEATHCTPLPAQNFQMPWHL
T1 sequence (P08910 whole entry): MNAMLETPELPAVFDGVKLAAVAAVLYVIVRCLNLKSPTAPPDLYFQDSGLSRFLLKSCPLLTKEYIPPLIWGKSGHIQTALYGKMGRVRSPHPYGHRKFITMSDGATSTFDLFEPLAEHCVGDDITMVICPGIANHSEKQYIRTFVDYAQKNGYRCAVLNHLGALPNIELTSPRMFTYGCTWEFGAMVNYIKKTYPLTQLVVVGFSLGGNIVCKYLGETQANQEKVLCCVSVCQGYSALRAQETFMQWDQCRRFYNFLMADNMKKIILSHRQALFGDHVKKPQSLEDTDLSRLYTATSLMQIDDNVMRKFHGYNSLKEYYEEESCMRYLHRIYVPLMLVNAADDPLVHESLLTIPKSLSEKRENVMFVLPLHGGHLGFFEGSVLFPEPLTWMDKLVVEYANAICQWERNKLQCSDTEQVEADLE

CCCCCCCCCCCCCC1OC(=O)/C1=C\CCCCC(N)=O (centres unmarked) [KC01, (Z)-6-(2-oxo-4-tridecyloxetan-3-ylidene)hexanamide]
PS lipase activity [1]: blocked
inhibition at 1 µM (ABHD2): 94%
basal and LPS-induced cellular and secreted lyso-PSs [2]: reduced
inhibition [3]: 50-80%
LPS-induced increases in lyso-PSs and cytokine secretion (ABHD12−/− macrophages): both blocked
decrease of PS-lipase activity vs DMSO (COLO205 cells): > 90%
PS lipase activity of brain membrane lysates [4]: inhibited the PS lipase activity
PS lipase activity [5]: substantially reduced
